# Where a SMILES comes first, the peptide text is derived from it. Bridges are numbered along the chain shown (N, C = ends). [ ]: non-standard residue; d: D form. The star is where a group is joined. hPhe(3-Cl-4-CF3) = N[C@@H](CCc1ccc(C(F)(F)F)c(Cl)c1)C(=O)O; NPrPhe(4-CF3) = CCCN[C@@H](Cc1ccc(C(F)(F)F)cc1)C(=O)O; NMeGly(cPent) = CN[C@H](C(=O)O)C1CCCC1; Pro(4,4-F2) = O=C(O)[C@@H]1CC(F)(F)CN1; NMeGly(cBu) = CN[C@H](C(=O)O)C1CCC1; NMeD = CN[C@@H](CC(=O)O)C(=O)O; Morpholide = C1CN(*)CCO1; NMeA = CN[C@@H](C)C(=O)O; Ac5c = NC1(C(=O)O)CCCC1; Aze = O=C(O)[C@@H]1CCN1; Sar = CNCC(=O)O
# Assays:
# [1] = target: GDP-bound HRAS wild-type protein (Homo sapiens, UniProt P01112); assay: Binding to HRAS by surface plasmon resonance (SPR), Single Cycle Kinetics; details: for HRAS/KRAS (ratio of KD value for GDP-bound HRAS wild-type protein to KD value for KRAS): KD ratio class; for HRAS/KRAS (ratio of KD value with respect to HRAS to KD value with respect to KRAS): GDP-bound HRAS wild-type vs GDP-bound KRAS wild-type
# [2] = system: human lung cancer strain NCI-H441; assay: cells; details: NCI-H441, 96 h, read-out: NCI-H441 IC50 (nM)
# [3] = target: GDP-bound NRAS wild-type protein (Homo sapiens, UniProt P01111); assay: Binding to NRAS by surface plasmon resonance (SPR), Single Cycle Kinetics; details: for NRAS/KRAS (ratio of KD value for GDP-bound NRAS wild-type protein to KD value for KRAS): KD ratio class; for NRAS/KRAS (ratio of KD value with respect to NRAS to KD value with respect to KRAS): GDP-bound NRAS wild-type vs GDP-bound KRAS wild-type
# [4] = KD ratio HRAS/KRAS, class symbols
# [5] = KD ratio NRAS/KRAS, class symbols
# Sequence of GDP-bound NRAS wild-type protein (P01111 whole entry): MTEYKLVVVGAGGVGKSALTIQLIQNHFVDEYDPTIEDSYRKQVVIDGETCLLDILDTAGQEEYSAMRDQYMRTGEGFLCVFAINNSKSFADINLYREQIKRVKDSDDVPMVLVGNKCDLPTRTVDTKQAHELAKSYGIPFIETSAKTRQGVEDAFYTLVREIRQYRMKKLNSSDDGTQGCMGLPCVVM
# Sequence of GDP-bound HRAS wild-type protein (P01112 whole entry): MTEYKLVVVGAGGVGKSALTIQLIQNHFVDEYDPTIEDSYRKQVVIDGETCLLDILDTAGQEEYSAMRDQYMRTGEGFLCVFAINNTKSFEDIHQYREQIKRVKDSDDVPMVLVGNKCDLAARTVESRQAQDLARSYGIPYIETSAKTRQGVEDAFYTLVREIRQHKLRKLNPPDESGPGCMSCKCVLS
smiles,measurement,setting,value
CCO[C@@H]1C[C@H]2C(=O)NC3(CCC3)C(=O)N(C)[C@@H](C3CCCC3)C(=O)N(C)[C@H](C(=O)N3CCOCC3)CC(=O)N(C)[C@@H](CC)C(=O)N[C@@H]([C@@H](C)CC)C(=O)N3CC[C@H]3C(=O)N(C)[C@H]3CC[C@@H](C)CN(C3=O)[C@@H](Cc3ccc(C(F)(F)F)cc3)C(=O)N(C)CC(=O)N[C@@H](CCc3ccc(C(F)(F)F)c(Cl)c3)C(=O)N2C1 [PP1375],HRAS/KRAS (ratio of KD value for GDP-bound HRAS wild-type protein to KD value for KRAS),[1]; SPR,B (a compound having 3 or more and less than 10 is denoted as B)
same,IC50,[2],11.5 nM
same,NRAS/KRAS (ratio of KD value for GDP-bound NRAS wild-type protein to KD value for KRAS),[3]; SPR,B (a compound having 3 or more and less than 10 is denoted as B)
CCCOC[C@H]1C(=O)N[C@@H]([C@@H](C)CC)C(=O)N(C)CC(=O)N(C)[C@H]2C/C=C\CCN(C2=O)[C@@H](Cc2ccc(C)cc2)C(=O)N(C)CC(=O)N[C@@H](CCc2cc(F)c(C(F)(F)F)c(F)c2)C(=O)N2C[C@H](OCC)C[C@H]2C(=O)NC2(CC(C)(C)C2)C(=O)N(C)[C@@H](C2CCCC2)C(=O)N(C)[C@H](C(=O)N(CC)CC)CC(=O)N1C [PP1578],HRAS/KRAS (ratio of KD value for GDP-bound HRAS wild-type protein to KD value for KRAS),[1]; SPR,A (a compound having 10 or more and less than 20 is denoted as A)
same,IC50,[2],12.6 nM
same,NRAS/KRAS (ratio of KD value for GDP-bound NRAS wild-type protein to KD value for KRAS),[3]; SPR,A (a compound having 10 or more and less than 20 is denoted as A)
CCO[C@@H]1C[C@H]2C(=O)NC3(CCC3)C(=O)N(C)[C@@H](C3CCCC3)C(=O)N(C)[C@H](C(=O)N3CCOCC3)CC(=O)N(C)[C@@H](CC)C(=O)N[C@@H]([C@@H](C)CC)C(=O)N3CC[C@H]3C(=O)N(C)[C@H]3C[C@@H](C)[C@@H](C)CN(C3=O)[C@@H](Cc3ccc(C(F)(F)F)cc3)C(=O)N(C)CC(=O)N[C@@H](CCc3ccc(C(F)(F)F)c(Cl)c3)C(=O)N2C1 [PP1357],HRAS/KRAS (ratio of KD value for GDP-bound HRAS wild-type protein to KD value for KRAS),[1]; SPR,B (a compound having 3 or more and less than 10 is denoted as B)
same,IC50,[2],5.4 nM
same,NRAS/KRAS (ratio of KD value for GDP-bound NRAS wild-type protein to KD value for KRAS),[3]; SPR,A (a compound having 10 or more and less than 20 is denoted as A)
CC[C@H](C)[C@@H]1NC(=O)[C@H](CC2CC2)N(C)C(=O)C[C@@H](C(=O)N(C)C)N(C)C(=O)[C@H](C2CCCC2)N(C)C(=O)C2(CC(C)(C)C2)NC(=O)[C@@H]2C[C@@H](C(F)(F)F)CN2C(=O)[C@H](CCc2cc(F)c(C(F)(F)F)c(F)c2)NC(=O)CN(C)C(=O)[C@H](Cc2ccc(C(F)(F)F)cc2)N2CC/C=C\C[C@@H](C2=O)N(C)C(=O)CN(C)C1=O [PP1504],HRAS/KRAS (ratio of KD value for GDP-bound HRAS wild-type protein to KD value for KRAS),[1]; SPR,A (a compound having 10 or more and less than 20 is denoted as A)
same,IC50,[2],38 nM
same,NRAS/KRAS (ratio of KD value for GDP-bound NRAS wild-type protein to KD value for KRAS),[3]; SPR,A (a compound having 10 or more and less than 20 is denoted as A)
CCO[C@@H]1C[C@H]2C(=O)NC3(CCC3)C(=O)N(C)[C@@H](C(CC)CC)C(=O)N(C)[C@H](C)CC(=O)N(C)[C@@H](CC3CCCC3)C(=O)N[C@@H]([C@@H](C)CC)C(=O)N(C)CC(=O)N(C)[C@H]3C/C=C\CCN(C3=O)[C@@H](Cc3ccc(F)cc3)C(=O)N(C)CC(=O)N[C@@H](CCc3cc(F)c(C(F)(F)F)c(F)c3)C(=O)N2C1 [PP1523],IC50,[2],320 nM
CCO[C@@H]1C[C@H]2C(=O)NC3(CCC3)C(=O)N(C)[C@@H](C(CC)CC)C(=O)N3CCC[C@@H]3CC(=O)N(C)[C@@H](CC)C(=O)N[C@@H]([C@@H](C)CC)C(=O)N(C)CC(=O)N(C)[C@H]3C/C=C\CCN(C3=O)[C@@H](Cc3ccc(C(F)(F)F)cc3)C(=O)N(C)CC(=O)N[C@@H](CCc3cc(F)c(C(F)(F)F)c(F)c3)C(=O)N2C1 [PP1607],HRAS/KRAS (ratio of KD value for GDP-bound HRAS wild-type protein to KD value for KRAS),[1]; SPR,A (a compound having 10 or more and less than 20 is denoted as A)
same,IC50,[2],39.3 nM
CCO[C@@H]1C[C@H]2C(=O)NC3(CCC3)C(=O)N(C)[C@@H](C3CCCC3)C(=O)N(C)[C@H](C(=O)N3CCOCC3)CC(=O)N(C)[C@@H](C)C(=O)N[C@@H]([C@@H](C)CC)C(=O)N(C)CC(=O)N(C)[C@H]3CCCCCN(C3=O)[C@@H](Cc3ccc(C(F)(F)F)cc3)C(=O)N(C)CC(=O)N[C@@H](CCc3cc(F)c(C(F)(F)F)c(F)c3)C(=O)N2C1 [PP0474],HRAS/KRAS (ratio of KD value with respect to GDP-bound HRAS wild-type protein to KD value with respect to KRAS),"[1]; KD ratio HRAS/KRAS, SPR",B (a compound having 3 or more and less than 10 is denoted as B)
same,NRAS/KRAS (ratio of KD value with respect to GDP-bound NRAS wild-type protein to KD value with respect to KRAS),"[3]; KD ratio NRAS/KRAS, SPR",B (a compound having 3 or more and less than 10 is denoted as B)
CCC[C@H]1C(=O)N[C@@H]([C@@H](C)CC)C(=O)N(C)CC(=O)N(C)[C@H]2C/C=C\CCN(C2=O)[C@@H](Cc2ccc(C(F)(F)F)cc2)C(=O)N(C)CC(=O)N[C@@H](CCc2ccc(Cl)c(C(F)(F)F)c2)C(=O)N2C[C@H](OCC)C[C@H]2C(=O)NC2(CC(C)(C)C2)C(=O)N(C)[C@@H](C(CC)CC)C(=O)N(C)[C@H](C(=O)N(C)C)CC(=O)N1C [PP2785],HRAS/KRAS (ratio of KD value with respect to GDP-bound HRAS wild-type protein to KD value with respect to KRAS),[1]; [4],A (a compound having 10 or more and less than 20 is denoted as A)
same,NRAS/KRAS (ratio of KD value with respect to GDP-bound NRAS wild-type protein to KD value with respect to KRAS),[3]; [5],AA (a compound having 20 or more is denoted as AA)
CCC(CC)[C@H]1C(=O)N(C)[C@H](C(=O)N(C)C)CC(=O)N(C)[C@@H](COC)C(=O)N[C@@H]([C@@H](C)CC)C(=O)N(C)CC(=O)N(C)[C@H]2C/C=C\CCN(C2=O)[C@@H](Cc2ccc(C(F)(F)F)cc2)C(=O)N(C)CC(=O)N[C@@H](CCc2ccc(Cl)c(Cl)c2)C(=O)N2C[C@H](OC3CCC3)C[C@H]2C(=O)NC2(CC(C)(C)C2)C(=O)N1C [PP2642],HRAS/KRAS (ratio of KD value with respect to GDP-bound HRAS wild-type protein to KD value with respect to KRAS),[1]; [4],A (a compound having 10 or more and less than 20 is denoted as A)
same,NRAS/KRAS (ratio of KD value with respect to GDP-bound NRAS wild-type protein to KD value with respect to KRAS),[3]; [5],AA (a compound having 20 or more is denoted as AA)
CC[C@H](C)[C@@H]1NC(=O)[C@H](CC(C)C)N(C)C(=O)C[C@@H](C(=O)N2CCOCC2)N(C)C(=O)[C@H](C2CCCC2)N(C)C(=O)C2(CCC2)NC(=O)[C@@H]2[C@H](OC)CCN2C(=O)[C@H](CCc2cc(F)c(C(F)(F)F)c(F)c2)NC(=O)CN(C)C(=O)[C@H](Cc2ccc(C(F)(F)F)cc2)N2CCCC[C@@H](C2=O)N(C)C(=O)CN(C)C1=O [PP1084],HRAS/KRAS (ratio of KD value with respect to HRAS to KD value with respect to KRAS),"[1]; KD ratio, SPR",B (a compound having 3 or more and less than 10 is denoted as B)
same,NRAS/KRAS (ratio of KD value with respect to NRAS to KD value with respect to KRAS),"[3]; KD ratio, SPR",C (A compound having a KD ratio of 0.1 or more and less than 3 is denoted as C)
CCO[C@@H]1C[C@H]2C(=O)NC3(CCC3)C(=O)N(C)[C@@H](C3CCCC3)C(=O)N(C)[C@H](C(=O)N(C)C)CC(=O)N(C)[C@@H](CC3CCCC3)C(=O)N[C@@H]([C@@H](C)CC)C(=O)N(C)CC(=O)N(C)[C@H]3C/C=C\CCN(C3=O)[C@@H](Cc3ccc(C)cc3)C(=O)N(C)CC(=O)N[C@@H](CCc3ccc(C4CC4)c(F)c3)C(=O)N2C1 [PP2683],HRAS/KRAS (ratio of KD value with respect to GDP-bound HRAS wild-type protein to KD value with respect to KRAS),[1]; [4],A (a compound having 10 or more and less than 20 is denoted as A)
same,NRAS/KRAS (ratio of KD value with respect to GDP-bound NRAS wild-type protein to KD value with respect to KRAS),[3]; [5],A (a compound having 10 or more and less than 20 is denoted as A)
"CCCN1C(=O)[C@@H]2CCN2C(=O)[C@H](C)N(C)C(=O)[C@H]([C@@H](C)CC)NC(=O)[C@H](C2CCC2)N(C)C(=O)C[C@@H](C(=O)N2CCOCC2)N(C)C(=O)[C@H](C2CCCC2)N(C)C(=O)C2(CCCC2)NC(=O)[C@@H]2CC(F)(F)CN2C(=O)[C@H](CCc2ccc(C(F)(F)F)c(Cl)c2)NC(=O)CN(C)C(=O)[C@@H]1Cc1ccc(C(F)(F)F)cc1 [PP0204] ([NMeGly(cBu)]I[NMeA][Aze][NPrPhe(4-CF3)][Sar][hPhe(3-Cl-4-CF3)][Pro(4,4-F2)][Ac5c][NMeGly(cPent)][NMeD]-Morpholide; lactam N-11)",HRAS/KRAS (ratio of KD for GDP-bound HRAS wild-type to KD for KRAS),"[1]; KD ratio HRAS/KRAS, SPR",C (A compound having a KD ratio of 0.1 or more and less than 3 is denoted as C)
same,NRAS/KRAS (ratio of KD for GDP-bound NRAS wild-type to KD for KRAS),"[3]; KD ratio NRAS/KRAS, SPR",C (A compound having a KD ratio of 0.1 or more and less than 3 is denoted as C)
CCC[C@H]1C(=O)N[C@@H](C2CCCC2)C(=O)N(C)CC(=O)N(C)[C@H]2C/C=C\CCN(C2=O)[C@@H](Cc2ccc(C)cc2)C(=O)N(C)CC(=O)N[C@@H](CCc2cc(F)c(C(F)(F)F)c(F)c2)C(=O)N2CC3(CC3)C[C@H]2C(=O)NC2(CC(C)(C)C2)C(=O)N(C)[C@@H](CC(C)(C)C)C(=O)N(C)[C@H](C(=O)N(C)C)CC(=O)N1C [PP2999],HRAS/KRAS (ratio of KD value with respect to GDP-bound HRAS wild-type protein to KD value with respect to KRAS),"[1]; KD ratio HRAS/KRAS, SPR, GDP-bound wild-type proteins",A (a compound having 10 or more and less than 20 is denoted as A)
same,NRAS/KRAS (ratio of KD value with respect to GDP-bound NRAS wild-type protein to KD value with respect to KRAS),"[3]; KD ratio NRAS/KRAS, SPR, GDP-bound wild-type proteins",AA (a compound having 20 or more is denoted as AA)
CCCOC[C@H]1C(=O)N[C@@H]([C@@H](C)CC)C(=O)N(C)CC(=O)N(C)[C@H]2C/C=C\CCN(C2=O)[C@@H](Cc2ccc(C)cc2)C(=O)N(C)CC(=O)N[C@@H](CCc2ccc(C(F)(F)F)c(OC)c2)C(=O)N2C[C@@H](C)C[C@H]2C(=O)N(C)C2(CCC2)C(=O)N(C)[C@@H](C2CCCC2)C(=O)N(C)[C@H](C(=O)N(C)C)CC(=O)N1C [PP2365],HRAS/KRAS (ratio of KD value with respect to HRAS to KD value with respect to KRAS),[1]; SPR,B (a compound having 3 or more and less than 10 is denoted as B)
same,NRAS/KRAS (ratio of KD value with respect to NRAS to KD value with respect to KRAS),[3]; SPR,A (a compound having 10 or more and less than 20 is denoted as A)
